The record followed here is ChEMBL document CHEMBL1128904, “Synthesis and biological activity of 1-alkylcarbonylmethyl analogues of YM022” (Bioorg Med Chem Lett, 1996).

The target of assay [1] is T1, Gastrin/cholecystokinin type B receptor (Rattus norvegicus, UniProt P30553).
T1 sequence (P30553 whole entry): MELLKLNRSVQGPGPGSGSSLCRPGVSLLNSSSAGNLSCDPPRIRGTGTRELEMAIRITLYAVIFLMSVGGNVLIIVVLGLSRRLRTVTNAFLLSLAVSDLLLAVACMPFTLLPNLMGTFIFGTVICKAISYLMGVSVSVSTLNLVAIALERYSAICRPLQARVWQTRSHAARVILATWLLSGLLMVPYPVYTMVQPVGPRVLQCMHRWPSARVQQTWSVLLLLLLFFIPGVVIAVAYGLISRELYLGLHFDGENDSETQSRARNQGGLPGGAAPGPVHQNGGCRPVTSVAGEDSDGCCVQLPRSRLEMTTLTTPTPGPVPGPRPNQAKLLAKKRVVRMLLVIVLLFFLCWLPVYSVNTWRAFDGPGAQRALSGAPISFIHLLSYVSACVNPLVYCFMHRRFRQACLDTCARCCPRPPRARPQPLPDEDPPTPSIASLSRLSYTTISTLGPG
Briefly: Ability to displace [125I]CCK-8 from gastrin/Cholecystokinin type B receptor from rat brain. It counts as tissue-based.

Assay [2] concerns Rattus norvegicus. Briefly: Compound was evaluated for in vivo inhibition of pentagastrin induced gastric acid secretion in rats after iv administration at dose of 0.1 umol/kg. It counts as functional. The settings on record: Stomach.
In assay [3] the test system is Rattus norvegicus. Put plainly: Compound was evaluated for in vivo inhibition of pentagastrin induced gastric acid secretion in rats after id administration at dose of 0.3 umol/kg. It counts as functional. The settings on record: Stomach.
Assay [4] concerns Rattus norvegicus. Put plainly: Compound was evaluated for in vivo inhibition of pentagastrin induced gastric acid secretion in rats after iv administration at dose of 0.03 umol/kg. It counts as functional. The following applies: Stomach.
Assay [5] concerns Rattus norvegicus. Put plainly: Compound was evaluated for inhibition of pentagastrin induced gastric acid secretion in rats by 50% after iv administration. It is filed as functional. The following applies: Stomach.
In assay [6] the test system is Rattus norvegicus. Put plainly: Compound was evaluated for inhibition of pentagastrin induced gastric acid secretion in rats after id administration at dose of 0.3 umol/kg. It is filed as functional. The settings on record: Stomach.
Assay [7] has as its system Rattus norvegicus. Put plainly: Compound was evaluated for in vivo inhibition of pentagastrin induced gastric acid secretion in rats by 50% after iv administration. It counts as functional. The following applies: Stomach.
Assay [8] concerns Rattus norvegicus. Briefly: Compound was evaluated for in vivo inhibition of pentagastrin induced gastric acid secretion in rats after id administration at dose of 0.3 umol/kg; Not determined. The settings on record: Stomach. It is filed as functional, organism-based.
Assay [9] has as its target T2, Cholecystokinin receptor type A (Rattus norvegicus, UniProt P30551).
T2 sequence (P30551 whole entry): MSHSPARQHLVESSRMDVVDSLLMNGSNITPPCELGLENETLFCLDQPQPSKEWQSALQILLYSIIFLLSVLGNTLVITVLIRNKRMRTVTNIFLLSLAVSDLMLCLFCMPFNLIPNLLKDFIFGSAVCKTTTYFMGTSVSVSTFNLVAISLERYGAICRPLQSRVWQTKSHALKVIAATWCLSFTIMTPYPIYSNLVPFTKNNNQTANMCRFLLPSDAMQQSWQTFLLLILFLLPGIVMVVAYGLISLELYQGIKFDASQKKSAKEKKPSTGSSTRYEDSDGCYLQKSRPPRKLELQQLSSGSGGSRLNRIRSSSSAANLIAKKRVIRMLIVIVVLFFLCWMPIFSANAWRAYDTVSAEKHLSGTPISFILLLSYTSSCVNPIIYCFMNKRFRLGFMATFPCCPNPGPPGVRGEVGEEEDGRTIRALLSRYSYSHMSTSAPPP
Briefly: Compound was evaluated for its ability to displace [3H]L-364718 from Cholecystokinin type A receptor from rat pancreas.

In general, pIC50 refers to −log10 of the IC50, conventionally taken in molar units. By inhibition in vivo is commonly meant the percentage by which the read-out fell short of the control. High values mean a response far below the control, low ones a response near the control. In general, ED50 refers to the dose at which the effect has come halfway, by size or by number of responders.

pIC50: −log10 of the molar value. Activity calls are given as the source filed them. The calls are words filed in the database; no cut-off is given here.

As for `Cc1cccc(NC(=O)NC2N=C(c3ccccc3)c3ccccc3N(CC(=O)C3(C)CCCCC3)C2=O)c1` (configuration not stated), the negative-log IC50 (pIC50) in assay [1] was 9.42.

In assay [1], `Cc1cccc(NC(=O)NC2N=C(c3ccccc3)c3ccccc3N(CC(=O)C(C)(C)C3CCCCC3)C2=O)c1` (configuration not stated) gave a pIC50 of 9.07.

For the compound `Cc1cccc(NC(=O)NC2N=C(c3ccccc3)c3ccccc3N(CC(=O)C3CCCCC3)C2=O)c1` (configuration not stated), the pIC50 in assay [1] was 9.40. This compound also displayed an inhibition in vivo at 0.1 µmol/kg in the assay on Rattus norvegicus [2] of 67%.

For `Cc1cccc(NC(=O)NC2N=C(c3ccccc3)c3ccccc3N(CC(=O)C3CCC3)C2=O)c1` (configuration not stated), the pIC50 in assay [1] is 8.63.

Compound `Cc1cccc(NC(=O)N[C@@H]2N=C(c3ccccc3)c3ccccc3N(CC(=O)C3CCCC3)C2=O)c1` came in with an inhibition in vivo at 0.3 µmol/kg in the assay on Rattus norvegicus [3] of 31%. Further, in the assay with Rattus norvegicus [4], the inhibition in vivo at 0.03 µmol/kg amounted to 79.9%.

In turn, `Cc1cccc(NC(=O)NC2N=C(c3ccccc3)c3ccccc3N(CC(=O)C3CCCC3)C2=O)c1` (configuration not stated) showed a pIC50 in [1] of 9.64. The ED50 in the assay on Rattus norvegicus [5] was 0.0155 µmol/kg. Also, the inhibition in vivo at 0.3 µmol/kg with Rattus norvegicus [6] worked out at 36%. In addition, the inhibition in vivo at 0.03 µmol/kg with Rattus norvegicus [4] came to 65.2%.

The compound `CCC(CC)C(=O)CN1C(=O)C(NC(=O)Nc2cccc(C)c2)N=C(c2ccccc2)c2ccccc21` (configuration not stated) gave a pIC50 in [1] of 8.72.

As to `CCC(C)(C)C(=O)CN1C(=O)C(NC(=O)Nc2cccc(C)c2)N=C(c2ccccc2)c2ccccc21` (configuration not stated), the pIC50 in [1] is 9.24.

The compound `Cc1cccc(NC(=O)NC2N=C(c3ccccc3)c3ccccc3N(CC(=O)C3(C)CC3)C2=O)c1` (configuration not stated) showed a negative logarithm of the IC50 (pIC50) in assay [1] of 9.39.

The compound `Cc1cccc(NC(=O)NC2N=C(c3ccccc3)c3ccccc3N(CC(=O)CC3CCCCC3)C2=O)c1` (configuration not stated) gave a negative logarithm of the IC50 (pIC50) in assay [1] of 9.55.

`Cc1cccc(NC(=O)NC2N=C(c3ccccc3)c3ccccc3N(CC(=O)C(C)(C)C)C2=O)c1` (configuration not stated): the pIC50 in [1] is 9.28. Also, the inhibition in vivo at 0.3 µmol/kg in the assay on Rattus norvegicus [3] was 80%. In addition, in the assay on Rattus norvegicus [7], the ED50 came to 0.0057 µmol/kg. For the same compound, the inhibition in vivo at 0.03 µmol/kg with Rattus norvegicus [4] amounted to 76.7%.

With `Cc1cccc(NC(=O)NC2N=C(c3ccccc3)c3ccccc3N(CC(=O)C(C)C)C2=O)c1` (configuration not stated), the pIC50 in [1] was 8.68.

Compound `Cc1cccc(NC(=O)N[C@@H]2N=C(c3ccccc3)c3ccccc3N(C)C2=O)c1` [L-365260] registered a 50% effective dose (ED50) in the assay on Rattus norvegicus [7] of 4.23 µmol/kg. Moreover, the inhibition result with Rattus norvegicus [8] was “inactive”. This compound also registered an inhibition in vivo at 0.03 µmol/kg with Rattus norvegicus [4] of 0%.

In the case of `Cc1cccc(NC(=O)N[C@H]2N=C(c3ccccc3)c3ccccc3N(CC(=O)C3CCCC3)C2=O)c1`, in [1], the pIC50 was 8.21.

In assay [1], `Cc1cccc(NC(=O)NC2N=C(c3ccccc3)c3ccccc3N(CC(=O)C3(C)CCCC3)C2=O)c1` (configuration not stated) showed a pIC50 of 10.00.

With `Cc1cccc(NC(=O)NC2N=C(c3ccccc3)c3ccccc3N(CC(=O)C3CCCCCC3)C2=O)c1` (configuration not stated), in [1], the pIC50 is 8.70. Besides, the inhibition in vivo at 0.03 µmol/kg in the assay on Rattus norvegicus [4] stood at 53.5%.

In the case of `Cc1cccc(NC(=O)N[C@@H]2N=C(c3ccccc3)c3ccccc3N(CC(=O)c3ccccc3C)C2=O)c1`, the pIC50 is 6.84 in assay [9] and 9.96 in [1]. In the assay on Rattus norvegicus [3], this compound registered an inhibition in vivo at 0.3 µmol/kg of 16%. This compound also registered an ED50 in the assay on Rattus norvegicus [7] of 0.0078 µmol/kg. Moreover, the inhibition in vivo at 0.03 µmol/kg with Rattus norvegicus [4] is 80%.
